Experimental data as given in ChEMBL document CHEMBL6074635, “Replacement of the essential nitro group by electrophilic warheads towards nitro-free antimycobacterial benzothiazinones” (Eur J Med Chem, 2024).
In brackets after ≈: the same amount, converted by molar mass.

Key:
Mycolicibacterium vaccae = assay: Antimycobacterial activity against Mycobacterium vaccae JMRC:STI:10670 assessed as inhibition of bacterial growth incubated for 42 hrs by broth microdilution method; assay type: functional
[1] = tested on: Mycolicibacterium smegmatis; assay: Antimycobacterial activity against Mycobacterium smegmatis JMRC:STH:00056 assessed as inhibition of bacterial growth incubated for 42 hrs by broth microdilution method; assay type: functional
[2] = tested on: Mycobacterium tuberculosis; assay: Antimycobacterial activity against Mycobacterium tuberculosis H37Rv assessed as inhibition of bacterial growth incubated for 7 days by resazurin dye based two-fold dilution assay; assay type: functional; details: 168 h, time 7 day
[3] = tested on: Mycobacterium tuberculosis; assay: Antimycobacterial activity against Mycobacterium tuberculosis Erdman ATCC 35801 assessed as inhibition of bacterial growth incubated for 7 days by resazurin dye based two-fold dilution assay; assay type: functional; details: Erdman ATCC 35801, 168 h, time 7 day
[4] = Cytotoxicity against human HeLa cells incubated for 72 hrs by cell-titer blue reagent assay; assay type: toxicity, cell-based
[5] = Stability of compound in PBS at pH 7.4 assessed as half-life in presence of GSH incubated for 90 mins by UPLC-HRMS analysis; assay type: physicochemical; details: PBS with GSH
[6] = Drug metabolism in BALB/cAnNCrl mouse assessed as HMC metabolite formation at 250 mg/kg,po measured after 24 hrs by UHPLC-HRMS analysis; assay type: ADME, organism-based; details: in vivo
[7] = molecular target: T1, Decaprenylphosphoryl-beta-D-ribose oxidase (Mycobacterium tuberculosis (strain ATCC 25618 / H37Rv), UniProt P9WJF1); assay: Reversible inhibition of recombinant Mycobacterium tuberculosis DprE1 extracted from Escherichia coli BL21(DE3) using FPR/GGPR as substrate incubated for 60 mins by resazurin dye based fluorescence plate reader analysis
T1 sequence (P9WJF1 whole entry): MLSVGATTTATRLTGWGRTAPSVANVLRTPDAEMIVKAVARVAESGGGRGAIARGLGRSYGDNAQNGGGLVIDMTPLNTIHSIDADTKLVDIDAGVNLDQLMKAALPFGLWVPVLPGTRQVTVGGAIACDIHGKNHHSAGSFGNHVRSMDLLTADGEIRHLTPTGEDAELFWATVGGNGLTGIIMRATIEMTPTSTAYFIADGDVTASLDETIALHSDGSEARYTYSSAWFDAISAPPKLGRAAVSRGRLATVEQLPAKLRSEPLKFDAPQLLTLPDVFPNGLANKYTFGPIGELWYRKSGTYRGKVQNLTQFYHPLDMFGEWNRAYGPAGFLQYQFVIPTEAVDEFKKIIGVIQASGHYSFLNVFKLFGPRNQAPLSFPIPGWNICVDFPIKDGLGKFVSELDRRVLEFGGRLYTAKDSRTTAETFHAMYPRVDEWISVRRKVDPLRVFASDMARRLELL

[8] = Stability of compound in PBS at pH 7.4 in presence of GSH incubated for 90 mins by UPLC-HRMS analysis; assay type: physicochemical; details: buffer, pH 7.4, 1.5 h
[9] = molecular target: T1, Decaprenylphosphoryl-beta-D-ribose oxidase; assay: Covalent inhibition of recombinant Mycobacterium tuberculosis DprE1 extracted from Escherichia coli BL21(DE3) using FPR/GGPR as substrate incubated for 60 mins by resazurin dye based fluorescence plate reader analysis
[10] = molecular target: T1, Decaprenylphosphoryl-beta-D-ribose oxidase; assay: Covalent inhibition of recombinant Mycobacterium tuberculosis DprE1 extracted from Escherichia coli BL21(DE3) assessed as inhibition constant using FPR/GGPR as substrate incubated for 60 mins by resazurin dye based fluorescence plate reader analysis
[11] = Stability of compound in PBS at pH 7.4 assessed as compound remaining in presence of GSH incubated for 90 mins by UPLC-HRMS analysis; assay type: physicochemical; details: PBS with GSH, read-out: Stability

For C#CP(=O)(Nc1cc(C(F)(F)F)cc2c(=O)nc(N3CCC4(CC3)OC[C@H](C)O4)sc12)OCC (stereo partly specified), the MIC (Mycolicibacterium vaccae) was 12 µM (≈ 6.21 µg/mL), the MIC [1] was 96.6 µM (≈ 50 µg/mL) and the MIC [2] was 10.3 µM (≈ 5.33 µg/mL). For the same molecule, the MIC [3] was 10.3 µM (≈ 5.33 µg/mL), the CC50 at 72 h [4] was 10.8 µM and the half-life [5] was 10.5 min. For the same molecule, the Drug metabolism [6] was “metabolite_notdetected”.
C=C=CC(=O)Nc1cc(C(F)(F)F)cc2c(=O)nc(N3CCC4(CC3)OC[C@H](C)O4)sc12 gave an MIC (Mycolicibacterium vaccae) of 107 µM (≈ 50 µg/mL) and an MIC [1] of 107 µM (≈ 50 µg/mL).
For C=CS(=O)(=O)Nc1cc(C(F)(F)F)cc2c(=O)nc(N3CCC4(CC3)OC[C@H](C)O4)sc12, the MIC (Mycolicibacterium vaccae) was 1.6 µM (≈ 0.786 µg/mL), the MIC [1] was 25.4 µM (≈ 12.5 µg/mL) and the MIC [2] was 45.2 µM (≈ 22.2 µg/mL). For the same molecule, the MIC [3] was 44.9 µM (≈ 22.1 µg/mL) and the IC50 [7] was 2.62 µM.
With COC(=O)C(=O)Nc1cc(C(F)(F)F)cc2c(=O)nc(N3CCC4(CC3)OC[C@H](C)O4)sc12 the MIC (Mycolicibacterium vaccae) was 51.3 µM (≈ 25 µg/mL), the MIC [1] was 103 µM (≈ 50 µg/mL) and the CC50 at 72 h [4] was greater than 50 µM. For the same molecule, the Stability [8] was “Unstable” and the Drug metabolism [6] was “metabolite_notdetected”.
With CCOC(=O)C(=O)Nc1cc(C(F)(F)F)cc2c(=O)nc(N3CCC4(CC3)OC[C@H](C)O4)sc12 the MIC (Mycolicibacterium vaccae) was 49.8 µM (≈ 25 µg/mL), the MIC [1] was 99.7 µM (≈ 50 µg/mL) and the CC50 at 72 h [4] was greater than 50 µM. The Stability [8] was “Unstable” and the Drug metabolism [6] was “metabolite_notdetected”.
With C=CC(=O)Nc1cc(C(F)(F)F)cc2c(=O)nc(N3CCC4(CC3)OC[C@H](C)O4)sc12 the MIC [1] was 110 µM (≈ 50 µg/mL), the MIC [2] was 3.9 µM (≈ 1.78 µg/mL) and the MIC [3] was 3.6 µM (≈ 1.64 µg/mL). It also gave an IC50 [9] of 6.83 µM and a Ki [10] of 38.8 µM.
For C=C(F)C(=O)Nc1cc(C(F)(F)F)cc2c(=O)nc(N3CCC4(CC3)OC[C@H](C)O4)sc12, the MIC (Mycolicibacterium vaccae) was 13.2 µM (≈ 6.25 µg/mL), the MIC [1] was 106 µM (≈ 50 µg/mL) and the MIC [2] was 13 µM (≈ 6.15 µg/mL). It also gave an MIC [3] of 15.5 µM (≈ 7.34 µg/mL) and an IC50 [7] of 1.13 µM.
With C[C@H]1COC2(CCN(c3nc(=O)c4cc(C(F)(F)F)cc(NC(=O)C(C)(C)Br)c4s3)CC2)O1 the MIC (Mycolicibacterium vaccae) was 45.4 µM (≈ 25 µg/mL), the MIC [1] was 90.8 µM (≈ 50 µg/mL) and the CC50 at 72 h [4] was greater than 50 µM. The remaining at 1.5 h [11] was 100%, the Drug metabolism [6] was “metabolite_notdetected” and the IC50 [9] was 81.4 µM. It also gave a Ki [10] of 715 µM.
C[C@H]1COC2(CCN(c3nc(=O)c4cc(C(F)(F)F)cc(N5CCC5=O)c4s3)CC2)O1 showed an MIC (Mycolicibacterium vaccae) of 54.9 µM (≈ 25 µg/mL), an MIC [1] of 110 µM (≈ 50 µg/mL) and a CC50 at 72 h [4] greater than 50 µM. For the same molecule, the remaining at 1.5 h [11] was 100%.
For C=C(C)C(=O)Nc1cc(C(F)(F)F)cc2c(=O)nc(N3CCC4(CC3)OC[C@H](C)O4)sc12, the MIC (Mycolicibacterium vaccae) was 26.6 µM (≈ 12.5 µg/mL), the MIC [1] was 106 µM (≈ 50 µg/mL) and the IC50 [9] was 33.9 µM. For the same molecule, the Ki [10] was 214 µM.
Molecule CC(Cl)C(=O)Nc1cc(C(F)(F)F)cc2c(=O)nc(N3CCC4(CC3)OC[C@H](C)O4)sc12 (stereo partly specified) has an MIC (Mycolicibacterium vaccae) of 102 µM (≈ 50 µg/mL), an MIC [1] of 102 µM (≈ 50 µg/mL) and a CC50 at 72 h [4] greater than 50 µM. For the same molecule, the remaining at 1.5 h [11] was 100% and the Drug metabolism [6] was “metabolite_notdetected”.
C=CP(=O)(Nc1cc(C(F)(F)F)cc2c(=O)nc(N3CCC4(CC3)OC[C@H](C)O4)sc12)OCC (stereo partly specified) showed an MIC (Mycolicibacterium vaccae) of 6 µM (≈ 3.12 µg/mL), an MIC [1] of 24.1 µM (≈ 12.5 µg/mL) and an MIC [2] of 4.5 µM (≈ 2.34 µg/mL). It also gave an MIC [3] of 5 µM (≈ 2.6 µg/mL), a CC50 at 72 h [4] greater than 50 µM and a remaining at 1.5 h [11] of 100%. For the same molecule, the Drug metabolism [6] was “metabolite_notdetected” and the IC50 [7] was 19.5 µM.
C[C@H]1COC2(CCN(c3nc(=O)c4cc(C(F)(F)F)cc([N+](=O)[O-])c4s3)CC2)O1 [BTZ-043] gave an MIC (Mycolicibacterium vaccae) of 0.004 µM (≈ 0.00173 µg/mL), an MIC [1] of 0.058 µM (≈ 0.025 µg/mL) and an MIC [2] of 0.002 µM (≈ 0.000863 µg/mL). The MIC [3] was 0.002 µM (≈ 0.000863 µg/mL).
